The term IC50 denotes the concentration needed to halve the response being measured. Lower therefore signals greater potency.

The structures appear in SMILES notation.

The values that follow come from PMC5815904 (Circulation research, 2017).

Experiment [1] concerns the target T1, Pannexin 1 (PANX1) (Homo sapiens, UniProt Q96RD7). The experiment in a line: whole-cell patch clamp in apoptotic Jurkat cells. It counts as cell-based. (The patch-clamp technique gives a direct electrical read-out from membranes.)
Target sequence in this assay (Q96RD7 whole entry): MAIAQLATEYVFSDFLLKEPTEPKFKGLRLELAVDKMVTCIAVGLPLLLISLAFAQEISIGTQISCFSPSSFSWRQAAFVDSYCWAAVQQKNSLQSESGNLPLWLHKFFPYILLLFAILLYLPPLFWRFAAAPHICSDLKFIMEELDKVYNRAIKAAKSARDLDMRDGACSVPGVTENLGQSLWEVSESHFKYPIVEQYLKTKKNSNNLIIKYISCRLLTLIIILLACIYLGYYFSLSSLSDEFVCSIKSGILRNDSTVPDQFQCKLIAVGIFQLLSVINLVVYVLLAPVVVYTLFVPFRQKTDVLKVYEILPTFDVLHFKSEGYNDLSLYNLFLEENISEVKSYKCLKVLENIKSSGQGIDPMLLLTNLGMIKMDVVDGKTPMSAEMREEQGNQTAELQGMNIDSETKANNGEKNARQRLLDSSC
The target in experiment [2] is T1, Pannexin 1 (PANX1). Briefly: whole-cell patch clamp in HEK293T. The class given is cell-based.
Target sequence in this assay (Q96RD7 1-379 limits assumed): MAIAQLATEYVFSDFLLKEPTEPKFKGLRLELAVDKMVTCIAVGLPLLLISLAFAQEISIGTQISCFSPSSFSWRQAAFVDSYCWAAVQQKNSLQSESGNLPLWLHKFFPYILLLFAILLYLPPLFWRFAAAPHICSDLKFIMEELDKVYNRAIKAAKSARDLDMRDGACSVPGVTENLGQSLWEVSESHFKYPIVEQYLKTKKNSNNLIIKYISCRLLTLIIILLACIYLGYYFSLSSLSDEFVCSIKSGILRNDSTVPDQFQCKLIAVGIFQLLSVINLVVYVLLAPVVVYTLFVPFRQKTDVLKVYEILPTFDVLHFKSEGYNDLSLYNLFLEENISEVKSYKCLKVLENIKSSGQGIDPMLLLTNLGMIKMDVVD

Consider `CC1(C)[C@@H](OC(=O)CCC(=O)O)CC[C@]2(C)[C@H]3C(=O)C=C4[C@@H]5C[C@@](C)(C(=O)O)CC[C@]5(C)CC[C@@]4(C)[C@]3(C)CC[C@@H]12` [carbenoxolone], for which, in experiment [1], the “whole-cell patch clamp in apoptotic Jurkat cells” value was “the current sensitive to spironolactone was fully blocked by carbenoxolone (CBX), a drug known to inhibit PANX1”.
For the compound `CC(=O)S[C@@H]1CC2=CC(=O)CC[C@]2(C)[C@H]2CC[C@@]3(C)[C@@H](CC[C@@]34CCC(=O)O4)[C@H]12` [spironolactone], the midpoint of inhibition in experiment [2], the IC50, lay at 8.7 ± 1.5 µM.
